Measurements: ChEMBL document CHEMBL1138260, “The first biologically active synthetic analogues of FK228, the depsipeptide histone deacetylase inhibitor” (J Med Chem, 2007)
pIC50: −log10 of the molar value. Active and inactive are the calls of the source. The calls are words filed in the database; no cut-off is given here.

Key:
[1] = molecular target: T1, Protein deacetylase HDAC6 (Homo sapiens, UniProt Q9UBN7)
T1 sequence (Q9UBN7 whole entry): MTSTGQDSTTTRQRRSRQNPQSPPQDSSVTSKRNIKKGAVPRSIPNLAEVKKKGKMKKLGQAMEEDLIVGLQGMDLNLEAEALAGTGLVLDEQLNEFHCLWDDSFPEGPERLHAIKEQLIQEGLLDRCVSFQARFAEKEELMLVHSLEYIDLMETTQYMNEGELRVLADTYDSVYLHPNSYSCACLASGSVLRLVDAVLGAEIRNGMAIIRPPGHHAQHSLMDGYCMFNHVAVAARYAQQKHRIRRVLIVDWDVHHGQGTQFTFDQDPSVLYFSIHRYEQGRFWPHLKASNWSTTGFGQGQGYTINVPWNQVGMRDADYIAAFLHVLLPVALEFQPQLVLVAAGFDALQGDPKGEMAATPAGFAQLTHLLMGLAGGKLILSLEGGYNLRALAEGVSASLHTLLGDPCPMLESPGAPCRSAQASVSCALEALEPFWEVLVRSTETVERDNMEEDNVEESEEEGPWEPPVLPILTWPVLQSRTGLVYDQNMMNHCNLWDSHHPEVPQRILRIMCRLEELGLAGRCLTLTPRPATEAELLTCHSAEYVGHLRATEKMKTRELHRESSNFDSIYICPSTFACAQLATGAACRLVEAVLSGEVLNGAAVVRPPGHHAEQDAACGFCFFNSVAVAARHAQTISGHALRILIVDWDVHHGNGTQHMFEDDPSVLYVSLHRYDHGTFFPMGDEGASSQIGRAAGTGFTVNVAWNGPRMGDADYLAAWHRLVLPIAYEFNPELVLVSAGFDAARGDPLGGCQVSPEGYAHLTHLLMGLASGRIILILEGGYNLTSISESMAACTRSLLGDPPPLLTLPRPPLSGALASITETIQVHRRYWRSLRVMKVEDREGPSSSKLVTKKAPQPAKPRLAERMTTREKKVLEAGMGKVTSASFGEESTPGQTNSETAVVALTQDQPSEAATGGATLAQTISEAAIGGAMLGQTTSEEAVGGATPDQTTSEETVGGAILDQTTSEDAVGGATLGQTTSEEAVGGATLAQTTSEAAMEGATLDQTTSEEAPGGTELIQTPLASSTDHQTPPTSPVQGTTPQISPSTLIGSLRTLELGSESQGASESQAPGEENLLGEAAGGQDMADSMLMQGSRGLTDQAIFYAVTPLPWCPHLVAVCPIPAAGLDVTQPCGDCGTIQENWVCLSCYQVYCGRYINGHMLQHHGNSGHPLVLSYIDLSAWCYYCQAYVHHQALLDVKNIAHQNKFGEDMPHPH
Description: Inhibition of HDAC6 in presence of DTT

Histone deacetylase 1 = Histone deacetylase 1 (Homo sapiens, UniProt Q13547)
Description: Inhibition of HDAC1 in presence of DTT

Histone deacetylase = test: Inhibition of HDAC in HeLa nuclear extract in presence of DTT; type: protein assay, Homo sapiens
MCF7 [2] = test: Growth inhibition of MCF7 cells; type: functional, cell-based; conditions: Homo sapiens
MCF7 [3] = test: Induction of p21cip1/waf1 promoter activity in MCF7 cells after 24 hrs; type: functional, cell-based; conditions: Homo sapiens

Chain of Histone deacetylase 1 (Q13547 whole entry): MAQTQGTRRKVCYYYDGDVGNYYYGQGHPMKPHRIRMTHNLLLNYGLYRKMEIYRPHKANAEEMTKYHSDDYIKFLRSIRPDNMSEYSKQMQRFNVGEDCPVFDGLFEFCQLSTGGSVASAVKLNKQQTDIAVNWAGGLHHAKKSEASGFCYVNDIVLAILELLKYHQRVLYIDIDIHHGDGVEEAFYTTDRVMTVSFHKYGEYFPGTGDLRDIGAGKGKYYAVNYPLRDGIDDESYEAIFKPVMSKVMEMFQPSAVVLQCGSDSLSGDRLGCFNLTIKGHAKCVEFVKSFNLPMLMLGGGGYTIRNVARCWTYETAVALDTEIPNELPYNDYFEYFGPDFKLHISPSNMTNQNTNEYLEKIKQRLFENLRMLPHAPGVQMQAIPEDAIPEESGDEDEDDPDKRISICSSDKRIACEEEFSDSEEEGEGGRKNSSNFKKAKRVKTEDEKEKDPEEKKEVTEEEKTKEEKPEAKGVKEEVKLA

Row | SMILES | pIC50 [1] | pIC50 (Histone deacetylase 1) | IC50 (Histone deacetylase) [nM] | pIC50 (MCF7 [2]) | Activity (MCF7 [3])
1 | CC(C)[C@H]1NC(=O)[C@@H](C)NC(=O)[C@@H](C)NC(=O)C[C@@H](/C=C/CCS)OC(=O)CNC1=O | 5.31 | 7.76 | 7 | < 6.00 | –
2 | CC(C)[C@H]1NC(=O)[C@H]2CSSCC/C=C/[C@H](CC(=O)N[C@H](C)C(=O)N2)OC(=O)CNC1=O | 6.06 | 8.80 | 15 | 7.43 | Active
3 | CC(C)[C@H]1NC(=O)C[C@H]2/C=C/CCSSC[C@@H](NC1=O)C(=O)N[C@H](C(C)C)C(=O)NCC(=O)O2 | 6.05 | 8.80 | 7.2 | 8.29 | –
4 | COC(=O)CNC(=O)[C@H](NC(=O)[C@H]1CSSCC/C=C/[C@@H](O)CC(=O)N[C@H](C)C(=O)N1)C(C)C | – | – | > 3200 | < 6.00 | –
5 | CC(=O)SCC/C=C/[C@@H]1CC(=O)N[C@H](C)C(=O)N[C@H](C)C(=O)N[C@H](C(C)C)C(=O)NCC(=O)O1 | < 5.00 | < 7.00 | 242 | 7.26 | –
